Patent publication EP0252983B1, “SALTS OF N-(VINYLOXIETHYL)DITHIOCARBAMIC ACID, METHOD OF OBTAINING THEREOF AND […] ON THEM” (priority 1985, dated 1987)

What was measured:
Acremonium cowum = assay: Mycelial growth inhibition on agar (contact activity); assay type: cell-based; details: Würzeagar
Protocol: (§1) Die Prüfungen werden nach dem Verfahren zur Ermittlung der Kontaktaktivität durchgeführt. Man verwendet das in Wasser gelöste Kalium-N-(vinyloxyäthyl)dithiocarbamat, führt es in ein Nährmedium ein und vergießt auf Petri-Schalen. Nach 24 Stunden wird mit Pilzmyzelium nach einem Stichverfahren geimpft. Dann temperiert man die Schalen innerhalb von 5 Tagen bei einer zwischen 24 und 26 °C liegenden Temperatur und mißt den Durchmesser von Pilzkolonien, ermittelt den Prozentsatz der Hemmung des Myzelwachstums (S) ausgehend von Angaben am 5. Tag nach der Abbott-Formel [drawing 13] worin dc für den Durchmesser der Pilzkolonien, de für den Durchmesser von Pilzkolonien in der Schale stehen, wo ein die zu prüfenden Stoffe enthaltendes Medium vorhanden ist. Dieses Verfahren zur Ermittlung der mikrobiologischen Aktivität ist in anderen Beispielen verwendet.
(§2) Die Pilzkulturen werden auf Würzeagar gezüchtet. Ergebnisse, erhalten bei der Prüfung der fungiziden Aktivität gegen reine Kulturen von Mikroorganismen, welche Bioschädigungen hervorrufen, sind in der Tabelle 1 dargestellt.

Acremonium charticola = assay: as above; assay type: cell-based; details: Würzeagar
Protocol: as §1, §2

Oidium Sp. = assay: as above; assay type: cell-based; details: Würzeagar
Protocol: as §1, §2

Geotrichum candidum Link = assay: as above; assay type: cell-based; details: Würzeagar
Protocol: as §1, §2

Walrotiela subiculesa = assay: as above; assay type: cell-based; details: Würzeagar
Protocol: as §1, §2

Penicillium charlesii = assay: as above; assay type: cell-based; details: Würzeagar
Protocol: as §1, §2

Cladosporium resinae = assay: as above; assay type: cell-based; details: Würzeagar
Protocol: as §1, §2

[1] = test system: Cladosporium cladosporioides; assay: as above; assay type: cell-based; details: Würzeagar
Protocol: as §1, §2

Penicillium chrysogenum = assay: as above; assay type: cell-based; details: Würzeagar
Protocol: as §1, §2

[2] = Acute toxicity (LD50) in mice; assay type: in vivo, weißen Mäusen; details: perorale Applikation an weißen Mäusen
Rhizoctonia solani = assay: Mycelial growth inhibition on agar (contact activity); assay type: cell-based; details: Wirkstoffkonzentration 0,003 %; Würzeagar; Tabelle 7
Protocol: as §1
Die fungizide Aktivität von Zink-bis-(N-vinyloxyäthyldithiocarbamat) gegen reine Kulturen von Pilzen Fusarium moniliforme, Fusarium sambucinum, Aspergillus niger, Rhizoctonia solani, Cladosporium resinae, Cladosporium cladosporioides, Acremonium cowum, Acremonium charticola, Penicillium chrysogenum, Penicillium charlesii Smith, Penicillium funiculosum, Geotrichum candidum Link, Walrotiela subiculesa, Oidium sp., Paecilomyces varioti, Stereum hirsutum wird gemäß Beispiel 8 untersucht.
(§3) Als Nährmedium dient Würzeagar.

Aspergillus niger = assay: as above; assay type: cell-based; details: Wirkstoffkonzentration 0,003 %, Würzeagar
Sphaeropsis malorum = assay: as above; assay type: cell-based; details: Wirkstoffkonzentration 0,003 %; Würzeagar; Tabelle 7
Protocol: as §1, §3

[3] = Solubility in water (descriptive); assay type: physicochemical
Penicillium funiculosum = assay: Mycelial growth inhibition on agar (contact activity); assay type: cell-based; details: Wirkstoffkonzentration 0,003 %; Würzeagar; Tabelle 8
Protocol: as §1

Paecilomyces varioti = assay: as above; assay type: cell-based; details: Wirkstoffkonzentration 0,003 %; Würzeagar; Tabelle 8
Protocol: as §1

Stereum hirsutum = assay: as above; assay type: cell-based; details: Wirkstoffkonzentration 0,003 %; Würzeagar; Tabelle 8
Protocol: as §1

Larven von Fichtenböcken = assay: Insecticidal activity, topical application to larvae; assay type: in vivo, Fichtenböcke; details: 10%ige Lösung
Text: Die hohe insektizide Aktivität von Kalium-N-(vinyloxyathyl)dithiocarbamat und Zink-bis-(N-vinyloxyathyl- dithiocarbamat) wurde in Versuchen an Larven von Fichtenböcken nachgewiesen. Geprüft wurden die 10%igen wäßrigen (oder alkoholischen) Lösungen, welche auf die Kopfbrust von Larven aufgebracht wurden. In Versuchen standen je 20 Larven zur Verfügung. Die Versuche wurden dreimal wiederholt. Die Mortalität wurde nach 1, 24 und 48 Stunden ermittelt. Die insektizide Aktivität der erfindungsgemäßen Stoffe ist bedeutend höher als die von Chlorophos.
Die Prüfungen auf insektizide Aktivität werden an Larven von Fichtenböcken durchgeführt. Geprüft werden eine 10%ige wäßrige Lösung von Kalium-N-(vinyloxyäthyl)dithiocarbamat und eine 10%ige alkoholische Lösung von Zink-bis-N-(vinyloxyathyldithiocarbamat). In jedem Versuch stehen je 20 Larven zur Verfügung. Die Mortalität wird nach 1, 24 und 48 Stunden ermittelt. Die zu prüfenden Lösungen werden auf die Kopfbrust von Larven aufgebracht.

Wurzelfäule von Gurken = assay: Cucumber root rot test in treated non-sterile soil; assay type: in vivo
Text: Man nimmt 100 g unsterilen Boden, enthaltend 1 Teil Humus, 1 Teil Rasenboden, 1 Teil Sand, gibt darin ein Präparat, das Zink-bis-(N-vinyloxyäthyldithiocarbamat) ausgehend von 200 kg/ha Wirkstoff enthält.
Das Präparat wird wie folgt hergestellt: Einer gesättigten Lösung des genannten Salzes in Azeton gibt man einige Tropfen Emulgiermittel (hydroxyäthylierte Alkylphenole) zu und verdünnt mit Wasser. Innerhalb von 7 bis 8 Tagen begießt man dann bodenhaltige Gefäße mit Wasser, bis der Boden in einen Zustand gebracht wird, der 60% der vollen Wasseraufnahmekapazität des Feldes beträgt. Nach dieser Zeit erfolgt die Aussaat von Gurkensamen, eingequollen im voraus in einer 0,1%igen KMn04-Lösung innerhalb von 2 Stunden. In jedes Gefäß werden je 10 Samen auf eine Tiefe von 1 bis 1,5 cm gesät. Nach 7 bis 9 Tagen berücksichtigt man die Keimungsfähigkeit von Samen, dann bestimmt man nach 3 Tagen den Befallumfang von Pflanzen durch Wurzelfäule, hervorgerufen durch einen Erregerkomplex. Die Versuche werden viermal wiederholt, als Vergleichsmuster dient Milon. Die Prüfergebnisse zeigt Tabelle 9.

Pseudomonas = assay: Bactericidal activity on agar (concentration of complete growth inhibition); assay type: cell-based; details: % bezogen auf den Wirkstoff; am 5. Tag
Protocol: (§4) Geprüft wird die bakterizide Aktivität von Kalium-, Natrium-, Zink- und Kupfersalzen der N-(Vinyloxyäthyl)dithiocarbamidsäure gegen Bakterien der Gattungen Bacillus, Micrococcus, Pseudomonas, Escherichia und Xantomonas.
(§5) Man stellt wäßrige Stofflösungen verschiedener Konzentration her, die so berechnet werden, daß die Stoffkonzentration in der Petri-Schale bei der Gabe von 1 ml Lösung in das geschmolzene Nährmedium (45 bis 50 °C) zwischen 0,003 und 25 % (bezogen auf den Wirkstoff) schwankt. Nach 18 bis 24 Stunden bringt man auf die Oberfläche des Nährmediums 0,1 ml wäßrige Suspension eintägiger reiner Kulturen von Bakterien auf und verteilt sie gleichmäßig. In Kontrollschalen verteilt sich 0,1 ml Wasser über die Oberfläche des Nährmediums. Die Inkubation erfolgt bei 37 °C innerhalb von 5 Tagen. Die Wirksamkeit der Stoffe wird nach dem Auftreten des Bakterienwachstums auf der Oberfläche des Nährmediums eingeschätzt. Die Prüfergebnisse sind in der Tabelle 13 dargestellt.

Bacillus = assay: as above; assay type: cell-based; details: % bezogen auf den Wirkstoff; am 5. Tag
Protocol: as §4, §5

Micrococcus = assay: as above; assay type: cell-based; details: % bezogen auf den Wirkstoff; am 5. Tag
Protocol: as §4, §5

Escherichia = assay: as above; assay type: cell-based; details: % bezogen auf den Wirkstoff; am 5. Tag
Protocol: as §4, §5

Fusarium moniliforme = assay: Mycelial growth inhibition on agar (contact activity); assay type: cell-based; details: Wirkstoffkonzentration 0,003 %; Würzeagar; Tabelle 7
Protocol: as §1
(§6) Tabelle 2 zeigt die Angaben für die fungizide Aktivität von Kalium-N-(vinyloxyäthyl)dithiocarbamat und bekannten wirksamen Fungiziden Poly arbazin und TMTD. Der zu prüfende Stoff wurde im Laufe der Versuche in Wasser aufgelöst, und die Kulturen wurden auf einem Kartoffel-Glukose-Nährmedium gezüchtet.

Fusarium sambucinum = assay: as above; assay type: cell-based; details: Wirkstoffkonzentration 0,003 %; Würzeagar; Tabelle 7
Protocol: as §1, §6

Zink-bis-(N-vinyloxyäthyldithiocarbamat)
Ilfache: Entwicklung von Wurzelschimmel vermindert sich gegenüber Kontrolle (Wurzelfäule von Gurken; Aufzucht von Gurken)
88%: Mortalität von Larven der Fichtenböcke (Larven von Fichtenböcken; Wirkungsdauer 24 Stunden)
37,5%: Myzelhemmung in % (Cladosporium resinae; Präparatkonzentration 0,0015 %)
80%: Myzelhemmung in % (Oidium Sp.; Präparatkonzentration 0,0015 %) | Myzelhemmung in % (Penicillium chrysogenum; Präparatkonzentration 0,006 %)
4,0%: Entwicklung von Krankheiten in % (Wurzelfäule von Gurken; Wurzelfäule von Gurken, 200 kg/ha Wirkstoff)
29%: Myzelhemmung in % (Geotrichum candidum Link; Präparatkonzentration 0,0015 %)
0,05%: Konzentrationen, welche das Bakterienwachstum völlig (100 %) hemmen (Pseudomonas) | Konzentrationen, welche das Bakterienwachstum völlig (100 %) hemmen (Bacillus) | Konzentrationen, welche das Bakterienwachstum völlig (100 %) hemmen (Micrococcus) | Konzentrationen, welche das Bakterienwachstum völlig (100 %) hemmen (Escherichia)
10%: Myzelhemmung in % (Penicillium chrysogenum; Präparatkonzentration 0,0015 %) | Mortalität von Larven der Fichtenböcke (Larven von Fichtenböcken; Wirkungsdauer 1 Stunde)
52%: Myzelhemmung in % (Walrotiela subiculesa; Präparatkonzentration 0,0015 %)
90%: Myzelhemmung in % (Penicillium charlesii; Präparatkonzentration 0,0015 %) | Myzelhemmung in % (Aspergillus niger; Tabelle 7) | Myzelhemmung in % (Aspergillus niger; Tabelle 8)
wasserunlöslich: Löslichkeit in Wasser [3]
11%: Samenkeimung steigt gegenüber Kontrolle (Wurzelfäule von Gurken; Aufzucht von Gurken)
100%: Myzelhemmung in % (Acremonium cowum; Präparatkonzentration 0,003 %) | Myzelhemmung in % (Acremonium cowum; Präparatkonzentration 0,006 %) | Myzelhemmung in % (Acremonium cowum; Präparatkonzentration 0,012 %) | Myzelhemmung in % (Acremonium charticola; Präparatkonzentration 0,003 %) | Myzelhemmung in % (Acremonium charticola; Präparatkonzentration 0,006 %) | Myzelhemmung in % (Acremonium charticola; Präparatkonzentration 0,012 %) | Myzelhemmung in % (Oidium Sp.; Präparatkonzentration 0,003 %) | Myzelhemmung in % (Oidium Sp.; Präparatkonzentration 0,006 %) | Myzelhemmung in % (Oidium Sp.; Präparatkonzentration 0,012 %) | Myzelhemmung in % (Geotrichum candidum Link; Präparatkonzentration 0,003 %) | Myzelhemmung in % (Geotrichum candidum Link; Präparatkonzentration 0,006 %) | Myzelhemmung in % (Geotrichum candidum Link; Präparatkonzentration 0,012 %) | Myzelhemmung in % (Walrotiela subiculesa; Präparatkonzentration 0,003 %) | Myzelhemmung in % (Walrotiela subiculesa; Präparatkonzentration 0,006 %) | Myzelhemmung in % (Walrotiela subiculesa; Präparatkonzentration 0,012 %) | Myzelhemmung in % (Penicillium charlesii; Präparatkonzentration 0,003 %) | Myzelhemmung in % (Penicillium charlesii; Präparatkonzentration 0,006 %) | Myzelhemmung in % (Penicillium charlesii; Präparatkonzentration 0,012 %) | Myzelhemmung in % (Cladosporium resinae; Präparatkonzentration 0,003 %) | Myzelhemmung in % (Cladosporium resinae; Präparatkonzentration 0,006 %) | Myzelhemmung in % (Cladosporium resinae; Präparatkonzentration 0,012 %) | Myzelhemmung in % ([1]; Präparatkonzentration 0,0015 %) | Myzelhemmung in % ([1]; Präparatkonzentration 0,003 %) | Myzelhemmung in % ([1]; Präparatkonzentration 0,006 %) | Myzelhemmung in % ([1]; Präparatkonzentration 0,012 %) | Myzelhemmung in % (Penicillium chrysogenum; Präparatkonzentration 0,012 %) | Myzelhemmung in % (Rhizoctonia solani) | Myzelhemmung in % (Sphaeropsis malorum) | Myzelhemmung in % (Penicillium funiculosum) | Myzelhemmung in % (Paecilomyces varioti) | Myzelhemmung in % (Stereum hirsutum) | Mortalität von Larven der Fichtenböcke (Larven von Fichtenböcken; Wirkungsdauer 48 Stunden) | Myzelhemmung in % (Fusarium moniliforme) | Myzelhemmung in % (Fusarium sambucinum)
15%: Samenkeimung steigt gegenüber Milon (Vergleichmuster) (Wurzelfäule von Gurken; Aufzucht von Gurken)
50%: Myzelhemmung in % (Acremonium charticola; Präparatkonzentration 0,0015 %)
85,1%: Keimungshäufigkeit in % (Wurzelfäule von Gurken; Gurkensamen, 200 kg/ha Wirkstoff)
40%: Myzelhemmung in % (Acremonium cowum; Präparatkonzentration 0,0015 %) | Myzelhemmung in % (Penicillium chrysogenum; Präparatkonzentration 0,003 %)
1120 ± 266 mg/kg: LD50 [2]
